Key:
Bacillus subtilis = assay: Antibacterial activity against Bacillus subtilis ATCC 6633 assessed as inhibition of bacterial growth; format: functional, organism-based
Staphylococcus aureus = assay: Antibacterial activity against Staphylococcus aureus ATCC 25923 assessed as inhibition of bacterial growth; format: functional, organism-based
Escherichia coli = assay: Antibacterial activity against Escherichia coli ATCC 11775 assessed as inhibition of bacterial growth; format: functional, organism-based
Candida albicans = assay: Antifungal activity against Candida albicans ATCC 10231 assessed as inhibition of bacterial growth; format: functional, organism-based
SW-620 = assay: Cytotoxicity against human SW620 cells assessed as inhibition of cell growth; format: functional, cell-based
NCI-H460 = assay: Cytotoxicity against human NCI-H460 cells assessed as inhibition of cell growth; format: functional, cell-based

Measured: IC50

C[C@@H]1O[C@@H](Oc2cccc3nc4c(C(=O)O)cc5c(c4nc23)[C@H]2Cc3nc4cccc(O)c4nc3[C@@H](O5)[C@H]2O)[C@H](O)[C@H](O)[C@H]1O
> 30 µM: all assays above

O=C(O)c1cc2c(c3nc4c(O)cccc4nc13)[C@@H]1Cc3nc4cccc(O)c4nc3[C@@](O)(C1)O2
> 30 µM: all assays above

C[C@H]1O[C@H](Oc2cccc3nc4ccccc4nc23)[C@@H](O)[C@@H](O)[C@@H]1O
> 30 µM: all assays above

C[C@H]1O[C@H](Oc2cccc3nc4c(N(C)c5ccc(C(=O)O)cc5)cccc4nc23)[C@@H](O)[C@@H](O)[C@@H]1O
> 30 µM: all assays above

CN(c1ccc(C(=O)O)cc1)c1cccc2nc3c(O)cccc3nc12 [IZUMIPHENAZINE C]
> 30 µM: all assays above

C[C@@H]1O[C@@H](Oc2cccc3nc4c(C(=O)O)cc5c(c4nc23)[C@@H]2Cc3nc4cccc(O)c4nc3[C@@](O)(C2)O5)[C@H](O)[C@H](O)[C@H]1O
> 30 µM: all assays above

C[C@@H]1O[C@@H](Oc2cc(C(=O)O)c3nc4cccc(O)c4nc3c2)[C@H](O)[C@H](O)[C@H]1O
> 30 µM: all assays above

O=C(O)c1cc2c(c3nc4c(O)cccc4nc13)[C@H]1Cc3nc4cccc(O)c4nc3[C@@H](O2)[C@H]1O
> 30 µM: all assays above

From ChEMBL document CHEMBL5385947, “Tepuazines A-E: Phenazine Glycosides from a Venezuelan Quartz-Rich (Tepui) Cave Soil-Derived Streptomyces virginiae CMB-CA091” (J Nat Prod, 2024)
